Test system: 454973-116-R2-J3-PDC complex spheroid viability
Experiment: Anticancer human tumor 454973-116-R2-J3-PDC patient-derived pancreatic carcinoma cell line growth inhibition [POLQ]
Conditions: for IC50: curve of first compound; for viability, T/C: stronger effect = lower value; active = viability on the fitted dose curve at most 10% of control; inactive = the rest
Protocol: Multicellular complex tumor spheroid response to Polymerase (POL) inhibitors (novobiocin, ART-558, RP6685) in combination with a variety of drugs and investigational agents in selected tumor cell lines
The POL inhibitors (novobiocin, ART-558, and RP6685) were evaluated both individually and in combination with standard of care and investigational anticancer small molecules within a complex spheroid model of solid tumors. . Complex spheroids include a stromal component modeled by human endothelial cells (HUVEC) and fibroblasts modeled by human mesenchymal stem cells (MSCs). The concentration ranges selected for each drug and investigational agent were based upon clinically achievable concentrations if the clinical Cmax of the agent was known.
Compounds. The drugs and investigational agents: novobiocin (NSC847541), ART-558 (NSC835418), RP-6685 (NSC848927), peposertib (NSC802822), ceralasertib (NSC780249), elimusertib (NSC800525), camonsertib (NSC841442), AZD-1390 (NSC803789), olaparib (NSC753686), talazoparib (NSC767125), rucaparib (NSC756644), sotorasib (NSC818433), MRTX-1133 (NSC836407), SN-38 (NSC673596), topotecan (NSC609699), epotoside (NSC141540), doxorubicin (NSC123127), gemcitabine (NSC613327), 5-fluorouracil (NSC19893), paclitaxel (NSC125973), vemurafenib (NSC761431), MSA-2 (NSC828583), SN-011 (NSC837082), adavosertib (NSC754352), prexasertib (NSC758257), carboplatin (NSC241240) and oxaliplatin (NSC266046), were obtained from the National Cancer Institute (NCI) Developmental Therapeutics Program Chemical Repository (21). The FDA-approved anticancer drug set is available from the Developmental Therapeutics Program at https://dtp.cancer.gov/organization/dscb/obtaining/. […] The stock solutions were prepared in dimethyl sulfoxide (DMSO, Sigma-Aldrich, St. Louis, MO, cat. D2650), except for the platinum compounds which were prepared in saline (Quality Biological, Gaithersburg, MD, cat. 114-055-101), at 800-fold the tested concentration and stored at -70 degrees C prior to their use. All drugs and investigational agents were tested over a range starting from a high concentration at or near the clinical Cmax and decreasing in half-log increments. If the clinical Cmax for an agent had not been determined, the highest concentration tested was 10 microM, except for SN-38, which was tested at a high concentration of 1 microM.
Cell Culture. All cells were maintained in an incubator at 37 degrees C and 5% CO2 with 95% humidity. The PDC lines were cultured according to standard operating procedures established by the NCI PDMR (https://pdmr.cancer.gov). Table 3 of the manuscript, lists the cell lines along with the number of the three cell types plated to form the mct-spheroids and media for tumor cell growth. After thawing, all PDC lines, except 997537-175-T-J1-PDC and 415267-285-R-J2-PDC, were cultured in Matrigel-coated flasks prepared with a working solution of 1X Ham's F-12 nutrient mix, without supplementation (Thermo Fisher Scientific, cat. 11765054), 100 U/mL penicillin-streptomycin (Thermo Fisher Scientific, cat. 15140122), and 2.5% Matrigel (Corning Inc., Corning, NY, cat. 354248) for the first three passages. The two PDC lines 997537-175-T-J1-PDC and 415267-285-R-J2-PDC were cultured on uncoated flasks. The 857933-349-R-J2-PDC line was cultured in 6C/Colon 1B media containing advanced DMEM/F-12 (Thermo Fisher Scientific, cat. 12634028), 10 mM HEPES (Thermo Fisher Scientific, cat. 15630080), 1X GlutaMAX supplement (Thermo Fisher Scientific, cat. 35050061), 0.1 mg/mL primocin (InvivoGen, San Diego, CA, cat. ant-pm-2), 10% defined fetal bovine serum, heat inactivated (HyClone Laboratories Inc., Logan, UT, cat. SH30070.03HI), 50% L-WRN conditioned media (ATCC, cat. CRL-3276), 1.25 mM N-Acetyl-L-cysteine (Sigma-Aldrich, cat. A9165), 10 mM nicotinamide (Sigma-Aldrich, cat. N0636), 1X B-27 supplement (Thermo Fisher Scientific, cat. 17504044), 1X N-2 supplement (Thermo Fisher Scientific, cat. […]

[1] = second compound 0.0316 µM, first compound 0.0316 µM
[2] = second compound 0.0316 µM, first compound 0.1 µM
[3] = second compound 0.0316 µM, first compound 0.316 µM
[4] = second compound 0.0316 µM, first compound 1 µM
[5] = second compound 0.1 µM, first compound 0.0316 µM
[6] = second compound 0.1 µM, first compound 0.1 µM
[7] = second compound 0.1 µM, first compound 0.316 µM
[8] = second compound 0.1 µM, first compound 1 µM
[9] = second compound 0.316 µM, first compound 0.0316 µM
[10] = second compound 0.316 µM, first compound 0.1 µM
[11] = second compound 0.316 µM, first compound 0.316 µM
[12] = second compound 0.316 µM, first compound 1 µM
[13] = second compound 1 µM, first compound 0.0316 µM
[14] = second compound 1 µM, first compound 0.1 µM
[15] = second compound 1 µM, first compound 0.316 µM
[16] = second compound 1 µM, first compound 1 µM
[17] = second compound 3.16 µM, first compound 0.0316 µM
[18] = second compound 3.16 µM, first compound 0.1 µM
[19] = second compound 3.16 µM, first compound 0.316 µM
[20] = second compound 3.16 µM, first compound 1 µM
[21] = second compound 10 µM, first compound 0.0316 µM
[22] = second compound 10 µM, first compound 0.1 µM
[23] = second compound 10 µM, first compound 0.316 µM
[24] = second compound 10 µM, first compound 1 µM
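Also: spheroids exposed to drugs for seven days before measurement.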
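For viability, T/C in this document: percent viability relative to DMSO vehicle control wells taken as 100%.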

COc1cc2cc(C(=O)CCC(=O)O)sc2cc1OC + Cc1cccc(N(C)C(=O)C2C(O)CCN2c2nc(C)cc(C(F)(F)F)c2C#N)c1
inactive: viability, T/C [1] 103% | viability, T/C [2] 107% | viability, T/C [3] 107% | viability, T/C [4] 102% | viability, T/C (second compound 0.0316 µM, first compound 3.16 µM) 106% | viability, T/C (second compound 0.0316 µM, first compound 10 µM) 97% | viability, T/C [5] 105% | viability, T/C [6] 98.1% | viability, T/C [7] 95.7% | viability, T/C [8] 98% | viability, T/C (second compound 0.1 µM, first compound 3.16 µM) 92.6% | viability, T/C (second compound 0.1 µM, first compound 10 µM) 88.7% | viability, T/C [9] 93.8% | viability, T/C [10] 104% | viability, T/C [11] 96.2% | viability, T/C [12] 110% | viability, T/C (second compound 0.316 µM, first compound 3.16 µM) 109% | viability, T/C (second compound 0.316 µM, first compound 10 µM) 93.7% | viability, T/C [13] 105% | viability, T/C [14] 102% | viability, T/C [15] 99% | viability, T/C [16] 102% | viability, T/C (second compound 1 µM, first compound 3.16 µM) 105% | viability, T/C (second compound 1 µM, first compound 10 µM) 93.7% | viability, T/C [17] 103% | viability, T/C [18] 97.9% | viability, T/C [19] 96.5% | viability, T/C [20] 100% | viability, T/C (second compound 3.16 µM, first compound 3.16 µM) 98.9% | viability, T/C (second compound 3.16 µM, first compound 10 µM) 95.5% | viability, T/C [21] 97.7% | viability, T/C [22] 98.8% | viability, T/C [23] 94% | viability, T/C [24] 111% | viability, T/C (second compound 10 µM, first compound 3.16 µM) 102% | viability, T/C (second compound 10 µM, first compound 10 µM) 90.8%
> 10000 nM: IC50 (second compound 0.0316 µM) | IC50 (second compound 0.1 µM) | IC50 (second compound 0.316 µM) | IC50 (second compound 1 µM) | IC50 (second compound 3.16 µM) | IC50 (second compound 10 µM)

C=CCn1c(=O)c2cnc(Nc3ccc(N4CCN(C)CC4)cc3)nc2n1-c1cccc(C(C)(C)O)n1 + COC1C(OC(N)=O)C(O)C(Oc2ccc3c(O)c(NC(=O)c4ccc(O)c(CC=C(C)C)c4)c(=O)oc3c2C)OC1(C)C
548 nM: IC50 (second compound 0.0316 µM)
535 nM: IC50 (second compound 0.316 µM)
inactive: viability, T/C (second compound 0.0316 µM, first compound 0.00316 µM) 107% | viability, T/C (second compound 0.0316 µM, first compound 0.01 µM) 98.3% | viability, T/C [1] 102% | viability, T/C [2] 95.5% | viability, T/C [3] 81.2% | viability, T/C [4] 16.6% | viability, T/C (second compound 0.1 µM, first compound 0.00316 µM) 99.7% | viability, T/C (second compound 0.1 µM, first compound 0.01 µM) 104% | viability, T/C [5] 102% | viability, T/C [6] 103% | viability, T/C [7] 76.1% | viability, T/C [8] 17.3% | viability, T/C (second compound 0.316 µM, first compound 0.00316 µM) 102% | viability, T/C (second compound 0.316 µM, first compound 0.01 µM) 104% | viability, T/C [9] 104% | viability, T/C [10] 103% | viability, T/C [11] 74.7% | viability, T/C [12] 20.5% | viability, T/C (second compound 1 µM, first compound 0.00316 µM) 112% | viability, T/C (second compound 1 µM, first compound 0.01 µM) 101% | viability, T/C [13] 105% | viability, T/C [14] 104% | viability, T/C [15] 79.2% | viability, T/C [16] 18.2% | viability, T/C (second compound 3.16 µM, first compound 0.00316 µM) 104% | viability, T/C (second compound 3.16 µM, first compound 0.01 µM) 106% | viability, T/C [17] 111% | viability, T/C [18] 110% | viability, T/C [19] 86.8% | viability, T/C [20] 19.8% | viability, T/C (second compound 10 µM, first compound 0.00316 µM) 101% | viability, T/C (second compound 10 µM, first compound 0.01 µM) 98.8% | viability, T/C [21] 99.5% | viability, T/C [22] 105% | viability, T/C [23] 82.9% | viability, T/C [24] 18.8%
549 nM: IC50 (second compound 1 µM)
571 nM: IC50 (second compound 10 µM)
527 nM: IC50 (second compound 0.1 µM)
596 nM: IC50 (second compound 3.16 µM)
